Measurements from patent US7279332B2, “Method of isolating ependymal neural stem cells” (NeuroNova AB, priority 1998, dated 2007).

Test system: nigral dopamine neurons (substantia nigra pars compact)
Assay: Quantitative in vivo neurogenesis in substantia nigra pars compact after DiI labeling of ependymal cells
Settings: mice
Method: Adult rats and mice were given DiI through intraventricular injections as described in the example above. At various time intervals after the injection (hours-months), the animals were transcardially perfused with 15 ml 0.9% saline, followed by 50 ml of +4° C. 4% (w/v) paraformaldehyde and 0.4% (v/v) picric acid in 0.1 M phosphate buffered saline, pH 6.9, during 5 min. After brain removal, the tissue was fixed for an additional 90 minutes in the same fixative and cryoprotected in buffered sucrose (10% for 24 h, 30% for 2 days) at +4° C. The entire midbrain was cut with a cryostat using a systematic, uniform random sampling design, where 40 μm thick frontal sections were taken to six parallel rostrocaudal series. One series of sections was kept in 0.1 M PBS and the fluorescent signal was immediately converted to a permanent diaminobenzidine (DAB) signal using a modified previously described protocol (Singleton et al., J. Neurosci. Meth. 64:47). […] The photoconversion process was carefully evaluated and when all the fluorescent signal in substantia nigra was visualized with the brown DAB product, the sections were immunohistochemically labeled with a marker (Vector SG, Vector) for dopamine neurons (tyrosine hydroxylase) utilizing the avidin-biotin-immunoperoxidase system (Vector) (Janson et al., Neuroscience 57:931). The five parallel series of sections were instead stored in 30% sucrose in 0.1 M PBS at −20° C. until they were processed for immunohistochemistry and analyzed in a confocal laser scanning microscope utilizing several markers for glia and neurons (with appropriate controls) to determine the neuronal phenotype of the DiI labeled cells in substantia nigra pars compact (FIG. 8).
Quantitative estimates of the total number of TH immunoreactive cell bodies counterstained with cresyl violet (TH/CV+ neurons) as well as TH immunoreactive cell bodies also containing DiI label were made in the bilateral SNc. Neuronal counts were determined using coded sections and a stereological technique, the optical fractionator (Janson et al., Neuroscience 57:931). […]

CN1CC=C(c2ccccc2)CC1 [MPTP, 1-methyl-4-phenyl-1,2,3,6-tetrahydropyridine]
number of TH+/DiI+ nigral neurons (MPTP 40 mg/kg sc. vs vehicle): higher numbers of TH+/DiI+ nigral neurons | migratory streams of DiI+ cells in the midbrain (MPTP 40 mg/kg sc. vs vehicle, qualitative appearance): appeared more pronounced | increase in number of new neurons generated each week in substantia nigra, compared to animals treated with vehicle alone (MPTP 40 mg/kg sc., regression curve (r^2=0.744) of counts at a few hours to 2 months): 24%
